Experimental data published in PubChem BioAssay (NCI).
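Abbreviation: GI50, concentration required for 50% inhibition of growth. TGI is the concentration that stops growth completely.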

How the values were obtained:
Assay in all cases: DTP human tumour cell line panel, 384-well format
RPMI-8226 leukemia = test system: RPMI-8226 leukemia
UACC-62 melanoma = test system: UACC-62 melanoma
SK-MEL-28 melanoma = test system: SK-MEL-28 melanoma
HCT-15 colon = test system: HCT-15 colon
UACC-257 melanoma = test system: UACC-257 melanoma
UO-31 renal = test system: UO-31 renal
MCF7 breast = test system: MCF7 breast
T-47D breast = test system: T-47D breast
HOP-92 NSCLC = test system: HOP-92 NSCLC
SR leukemia = test system: SR leukemia
NCI-H322M lung = test system: NCI-H322M lung
MDA-MB-468 breast = test system: MDA-MB-468 breast
SK-OV-3 ovarian = test system: SK-OV-3 ovarian
NCI-H460 NSCLC = test system: NCI-H460 NSCLC
A549 NSCLC = test system: A549 NSCLC
SF-268 CNS = test system: SF-268 CNS
A498 renal = test system: A498 renal
MOLT-4 leukemia = test system: MOLT-4 leukemia
RXF 393 renal = test system: RXF 393 renal
KM12 colon = test system: KM12 colon
SF-295 CNS = test system: SF-295 CNS
SK-MEL-2 melanoma = test system: SK-MEL-2 melanoma
LOX IMVI melanoma = test system: LOX IMVI melanoma
BT-549 breast = test system: BT-549 breast
CAKI-1 renal = test system: CAKI-1 renal
CCRF-CEM leukemia = test system: CCRF-CEM leukemia
OVCAR-5 ovarian = test system: OVCAR-5 ovarian
HCC-2998 colon = test system: HCC-2998 colon
OVCAR-8 ovarian = test system: OVCAR-8 ovarian
U251 glioblastoma = test system: U251 glioblastoma
PC-3 prostate = test system: PC-3 prostate
HL-60(TB) leukemia = test system: HL-60(TB) leukemia
SF-539 CNS = test system: SF-539 CNS
HT29 colon = test system: HT29 colon
NCI-H226 lung = test system: NCI-H226 lung
IGROV1 ovarian = test system: IGROV1 ovarian
NCI-H522 lung = test system: NCI-H522 lung
786-0 renal = test system: 786-0 renal
MALME-3M melanoma = test system: MALME-3M melanoma
MDA-MB-435 melanoma = test system: MDA-MB-435 melanoma
M14 melanoma = test system: M14 melanoma
OVCAR-4 ovarian = test system: OVCAR-4 ovarian
K-562 leukemia = test system: K-562 leukemia
SK-MEL-5 melanoma = test system: SK-MEL-5 melanoma
TK-10 renal = test system: TK-10 renal

Cc1c(Nc2nccc3cc(CN4CC[C@@H](O)C4)cnc23)cccc1-c1cccc(-c2nc3cc(CN4CC[C@@H](C(=O)O)C4)cc(C#N)c3o2)c1C
GI50 (RPMI-8226 leukemia): 0.152 µM | TGI (RPMI-8226 leukemia): 0.29 µM | GI50 (UACC-62 melanoma): 0.304 µM | TGI (UACC-62 melanoma): 1.85 µM | GI50 (SK-MEL-28 melanoma): 0.261 µM | TGI (SK-MEL-28 melanoma): 1.62 µM | GI50 (HCT-15 colon): 1.53 µM | TGI (HCT-15 colon): 3.01 µM | GI50 (UACC-257 melanoma): 0.229 µM | TGI (UACC-257 melanoma): 1.04 µM | GI50 (UO-31 renal): 3.25 µM | TGI (UO-31 renal): > 100 µM | GI50 (MCF7 breast): 0.223 µM | TGI (MCF7 breast): 1.43 µM | GI50 (T-47D breast): 0.325 µM | TGI (T-47D breast): > 100 µM | GI50 (HOP-92 NSCLC): 0.297 µM | TGI (HOP-92 NSCLC): 1.97 µM | GI50 (SR leukemia): 0.0289 µM | TGI (SR leukemia): 0.107 µM | GI50 (NCI-H322M lung): 0.416 µM | TGI (NCI-H322M lung): > 100 µM | GI50 (MDA-MB-468 breast): 0.117 µM | TGI (MDA-MB-468 breast): 0.31 µM | GI50 (SK-OV-3 ovarian): 0.246 µM | TGI (SK-OV-3 ovarian): 1.18 µM | GI50 (NCI-H460 NSCLC): 0.193 µM | TGI (NCI-H460 NSCLC): 0.435 µM | GI50 (A549 NSCLC): 0.441 µM | TGI (A549 NSCLC): 2.97 µM | GI50 (SF-268 CNS): 0.371 µM | TGI (SF-268 CNS): 3.96 µM | GI50 (A498 renal): 0.391 µM | TGI (A498 renal): 1.49 µM | GI50 (MOLT-4 leukemia): 0.171 µM | TGI (MOLT-4 leukemia): 0.315 µM | GI50 (RXF 393 renal): 0.137 µM | TGI (RXF 393 renal): 0.39 µM | GI50 (KM12 colon): 0.0697 µM | TGI (KM12 colon): 0.679 µM | GI50 (SF-295 CNS): 0.416 µM | TGI (SF-295 CNS): 1.45 µM | GI50 (SK-MEL-2 melanoma): 0.0262 µM | TGI (SK-MEL-2 melanoma): 0.142 µM | GI50 (LOX IMVI melanoma): 0.668 µM | TGI (LOX IMVI melanoma): 1.86 µM | GI50 (BT-549 breast): 0.14 µM | TGI (BT-549 breast): 0.532 µM | GI50 (CAKI-1 renal): 0.464 µM | TGI (CAKI-1 renal): > 100 µM | GI50 (CCRF-CEM leukemia): 0.147 µM | TGI (CCRF-CEM leukemia): 0.287 µM | GI50 (OVCAR-5 ovarian): 0.522 µM | TGI (OVCAR-5 ovarian): > 100 µM | GI50 (HCC-2998 colon): 0.318 µM | TGI (HCC-2998 colon): 1.25 µM | GI50 (OVCAR-8 ovarian): 0.514 µM | TGI (OVCAR-8 ovarian): 1.83 µM | GI50 (U251 glioblastoma): 0.335 µM | TGI (U251 glioblastoma): 1.15 µM | GI50 (PC-3 prostate): 0.403 µM | TGI (PC-3 prostate): 1.75 µM | GI50 (HL-60(TB) leukemia): 0.172 µM | TGI (HL-60(TB) leukemia): 0.314 µM | GI50 (SF-539 CNS): 0.274 µM | TGI (SF-539 CNS): 0.971 µM | GI50 (HT29 colon): 0.213 µM | TGI (HT29 colon): 0.496 µM | GI50 (NCI-H226 lung): 0.449 µM | TGI (NCI-H226 lung): 3.73 µM | GI50 (IGROV1 ovarian): 1.07 µM | TGI (IGROV1 ovarian): > 100 µM | GI50 (NCI-H522 lung): 0.118 µM | TGI (NCI-H522 lung): 0.287 µM | GI50 ([…]-0 renal): 0.334 µM | TGI (786-0 renal): 1.26 µM | GI50 (MALME-3M melanoma): 0.127 µM | TGI (MALME-3M melanoma): 0.851 µM | GI50 (MDA-MB-435 melanoma): 0.0473 µM | TGI (MDA-MB-435 melanoma): 0.206 µM | GI50 (M14 melanoma): 0.259 µM | TGI (M14 melanoma): 0.866 µM | GI50 (OVCAR-4 ovarian): 0.459 µM | TGI (OVCAR-4 ovarian): 4.98 µM | GI50 (K-562 leukemia): 0.205 µM | TGI (K-562 leukemia): 0.567 µM | GI50 (SK-MEL-5 melanoma): 0.0948 µM | TGI (SK-MEL-5 melanoma): 0.321 µM | GI50 (TK-10 renal): 1.66 µM | TGI (TK-10 renal): > 100 µM
